From patent US4383113A, “Agricultural sulfonamides” (E. I. Du Pont de Nemours and Company, priority 1981, dated 1983)

What was measured:
[1] = system: purple nutsedge; experiment: Test G soil incorporated; format: in vivo, Cyperus rotundus; settings: .032 kg/ha, low OM
Source text: (§1) Purple nutsedge tubers (Cyperus rotundus, L.) were planted about 2 cm deep in Fallsington silt loam (about 1% organic matter from Delaware) and in Flanagan loam (about 4% organic matter) from Illinois. Five tubers were planted in each 10 cm diameter plastic pot. Treatments recorded in Table XVII were applied in three different ways, i.e., soil surface spray, tuber/soil spray and soil incorporated. In surface sprays, the material was sprayed on the firmed soil surface after planting, but before nutsedge emergence. In tuber/soil sprays, the material was sprayed on exposed tubers and subtending soil before the tubers were covered with untreated soil. Soil incorporated treatments were mixed in the covering soil.
(§2) Immediately after treating, the treated pots were misted with about 0.3 cm of water over a 90 minute period and placed in the greenhouse.

[2] = system: purple nutsedge; experiment: Test G surface spray; format: in vivo, Cyperus rotundus; settings: high OM
Source text: as §1, §2

COC(=O)c1ccccc1S(=O)(=O)NC(=O)Nc1nc(OC)cc(OC)n1 [drawing 607]
response rating after 4 weeks [1]: 10C
response rating after 4 weeks ([2]; .008 kg/ha): 0
response rating after 4 weeks ([2]; .032 kg/ha): 10C
